Assay results published in ChEMBL document CHEMBL5113392, “Novel hybrid pyrrolidinedione-thiazolidinones as potential anticancer agents: Synthesis and biological evaluation” (Eur J Med Chem, 2022).
Calls of active or inactive are those of the source. The calls are words filed in the database; no cut-off is given here.

Experiments:
HCC 2998 [1] = assay: Anticancer activity against human HCC 2998 cells assessed as growth inhibition incubated for 48 hrs by SRB assay; format: functional
SF-268 [2] = assay: Anticancer activity against human SF-268 cells assessed as total growth inhibition incubated for 48 hrs by SRB assay; format: functional
NCI-H460 = assay: Anticancer activity against human NCI-H460 cells assessed as lethality incubated for 48 hrs by SRB assay; format: functional; details: read-out: LC50 (the source's name)
Jurkat [3] = assay: Induction of morphological changes in human Jurkat cells assessed as chromatin topology incubated for 24 hrs by Hoechst 33258 and propidium iodide staining based fluorescence microscopy; format: functional, cell-based
[4] = Cytotoxicity against mitogen activated human peripheral blood lymphocytes assessed as cell growth inhibition incubated for 48 hrs by MTT assay; format: toxicity, cell-based, Lymphocyte
HL-60 = assay: Anticancer activity against human HL-60 cells assessed as growth inhibition incubated for 48 hrs by SRB assay; format: functional
HOP-62 [5] = assay: Anticancer activity against human HOP-62 cells assessed as total growth inhibition incubated for 48 hrs by SRB assay; format: functional
M14 = assay: Anticancer activity against human M14 cells assessed as total growth inhibition incubated for 48 hrs by SRB assay; format: functional
HOP-62 [6] = assay: Anticancer activity against human HOP-62 cells assessed as growth inhibition incubated for 48 hrs by SRB assay; format: functional
NCI-H522 = assay: Anticancer activity against human NCI-H522 cells assessed as growth inhibition incubated for 48 hrs by SRB assay; format: functional
MDA-MB-231 = assay: Anticancer activity against human MDA-MB-231 cells assessed as total growth inhibition incubated for 48 hrs by SRB assay; format: functional
PC-3 = assay: Anticancer activity against human PC-3 cells assessed as growth inhibition incubated for 48 hrs by SRB assay; format: functional
SK-MEL-2 = assay: Anticancer activity against human SK-MEL-2 cells assessed as lethality incubated for 48 hrs by SRB assay; format: functional; details: read-out: LC50 (the source's name)
NCI/ADR-RES [7] = assay: Anticancer activity against human NCI/ADR-RES cells assessed as growth inhibition incubated for 48 hrs by SRB assay; format: functional
OVCAR-4 [8] = assay: Anticancer activity against human OVCAR-4 cells assessed as total growth inhibition incubated for 48 hrs by SRB assay; format: functional
RXF 393 [9] = assay: Anticancer activity against human RXF 393 cells assessed as total growth inhibition incubated for 48 hrs by SRB assay; format: functional
MCF7 = assay: Anticancer activity against human MCF7 cells assessed as growth inhibition incubated for 48 hrs by SRB assay; format: functional
HT-29 = assay: Anticancer activity against human HT-29 cells assessed as growth inhibition incubated for 48 hrs by SRB assay; format: functional
ACHN = assay: Anticancer activity against human ACHN cells assessed as growth inhibition incubated for 48 hrs by SRB assay; format: functional
MDA-MB-435 [10] = assay: Anticancer activity against human MDA-MB-435 cells assessed as growth inhibition incubated for 48 hrs by SRB assay; format: functional
HCC 2998 [11] = assay: Anticancer activity against human HCC 2998 cells assessed as inhibition of cell growth at 10 uM incubated for 48 hrs by SRB assay; format: functional; details: HCC 2998, 48 h, values are per cent of control
TK-10 [12] = assay: Anticancer activity against human TK-10 cells assessed as growth inhibition incubated for 48 hrs by SRB assay; format: functional
COLO 205 = assay: Anticancer activity against human COLO 205 cells assessed as lethality incubated for 48 hrs by SRB assay; format: functional; details: read-out: LC50 (the source's name)
IGROV-1 = assay: Anticancer activity against human IGROV-1 cells assessed as total growth inhibition incubated for 48 hrs by SRB assay; format: functional
SF-268 [13] = assay: Anticancer activity against human SF-268 cells assessed as lethality incubated for 48 hrs by SRB assay; format: functional; details: read-out: LC50 (the source's name)
RXF 393 [14] = assay: Anticancer activity against human RXF 393 cells assessed as growth inhibition incubated for 48 hrs by SRB assay; format: functional
HOP-92 = assay: Anticancer activity against human HOP-92 cells assessed as growth inhibition incubated for 48 hrs by SRB assay; format: functional
UO-31 [15] = assay: Anticancer activity against human UO-31 cells assessed as inhibition of cell growth at 10 uM incubated for 48 hrs by SRB assay; format: functional; details: UO-31, 48 h, values are per cent of control
Malme-3M [16] = assay: Anticancer activity against human Malme-3M cells assessed as total growth inhibition incubated for 48 hrs by SRB assay; format: functional
Malme-3M [17] = assay: Anticancer activity against human Malme-3M cells assessed as growth inhibition incubated for 48 hrs by SRB assay; format: functional
OVCAR-8 = assay: Anticancer activity against human OVCAR-8 cells assessed as lethality incubated for 48 hrs by SRB assay; format: functional; details: read-out: LC50 (the source's name)
SNB-19 = assay: Anticancer activity against human SNB-19 cells assessed as lethality incubated for 48 hrs by SRB assay; format: functional; details: read-out: LC50 (the source's name)
SR = assay: Anticancer activity against human SR cells assessed as growth inhibition incubated for 48 hrs by SRB assay; format: functional
SW-620 = assay: Anticancer activity against human SW-620 cells assessed as growth inhibition incubated for 48 hrs by SRB assay; format: functional
OVCAR-3 [18] = assay: Anticancer activity against human OVCAR-3 cells assessed as growth inhibition incubated for 48 hrs by SRB assay; format: functional
NCI/ADR-RES [19] = assay: Anticancer activity against human NCI/ADR-RES cells assessed as lethality incubated for 48 hrs by SRB assay; format: functional; details: read-out: LC50 (the source's name)
MDA-MB-435 [20] = assay: Anticancer activity against human MDA-MB-435 cells assessed as lethality incubated for 48 hrs by SRB assay; format: functional; details: read-out: LC50 (the source's name)
SF-295 = assay: Anticancer activity against human SF-295 cells assessed as total growth inhibition incubated for 48 hrs by SRB assay; format: functional
TK-10 [21] = assay: Anticancer activity against human TK-10 cells assessed as lethality incubated for 48 hrs by SRB assay; format: functional; details: read-out: LC50 (the source's name)
OVCAR-3 [22] = assay: Anticancer activity against human OVCAR-3 cells assessed as lethality incubated for 48 hrs by SRB assay; format: functional; details: read-out: LC50 (the source's name)
UACC-257 = assay: Anticancer activity against human UACC-257 cells assessed as total growth inhibition incubated for 48 hrs by SRB assay; format: functional
T47D = assay: Anticancer activity against human T47D cells assessed as lethality incubated for 48 hrs by SRB assay; format: functional; details: read-out: LC50 (the source's name)
UO-31 [23] = assay: Anticancer activity against human UO-31 cells assessed as lethality incubated for 48 hrs by SRB assay; format: functional; details: read-out: LC50 (the source's name)
OVCAR-4 [24] = assay: Anticancer activity against human OVCAR-4 cells assessed as growth inhibition incubated for 48 hrs by SRB assay; format: functional
SN12C = assay: Anticancer activity against human SN12C cells assessed as lethality incubated for 48 hrs by SRB assay; format: functional; details: read-out: LC50 (the source's name)
[25] = Selectivity index, ratio of GI50 for human HaCaT cells to GI50 for human HCT116-p53-null cells; format: toxicity; details: HaCaT cells versus HCT116-p53-null cells, read-out: RatioGI50
Salmon testes DNA = assay: Displacement of methyl green from salmon sperm DNA at 1 uM measured after 2 hrs by fluorescence plate reader method relative to control; format: nucleic-acid assay; details: Salmo salar
K562 = assay: Anticancer activity against human K562 cells assessed as lethality incubated for 48 hrs by SRB assay; format: functional; details: read-out: LC50 (the source's name)
Jurkat [26] = assay: Induction of morphological changes in human Jurkat cells assessed as change in cell shape incubated for 24 hrs by Hoechst 33258 and propidium iodide staining based fluorescence microscopy; format: functional

O=C1CC(N2C(=O)/C(=C/C(Cl)=C/c3ccc([N+](=O)[O-])cc3)SC2=S)C(=O)N1c1ccc(O)cc1 (stereo not drawn)
GI50 (HCC 2998 [1]): 1.48 µM | TGI (SF-268 [2]): 6.99 µM | CC50 (NCI-H460): 39.5 µM | Activity (Jurkat [3]): Active | GI50 at 48 h [4]: 51.2 µM | GI50 (HL-60): 2.44 µM | TGI (HOP-62 [5]): 6.63 µM | TGI (M14): 3.31 µM | GI50 (HOP-62 [6]): 2.26 µM | GI50 (NCI-H522): 1.86 µM | TGI (MDA-MB-231): 5.06 µM | GI50 (PC-3): 0.906 µM | CC50 (SK-MEL-2): 54.3 µM | GI50 (NCI/ADR-RES [7]): 2.13 µM | TGI (OVCAR-4 [8]): 17.3 µM | TGI (RXF 393 [9]): 3.22 µM | GI50 (MCF7): 1.21 µM | GI50 (HT-29): 0.847 µM | GI50 (ACHN): 1.36 µM | GI50 (MDA-MB-435 [10]): 2.01 µM | growth, % of control at 10 µM (HCC 2998 [11]): -81.6% | GI50 (TK-10 [12]): 1.92 µM | CC50 (COLO 205): 56 µM | TGI (IGROV-1): 2.68 µM | CC50 (SF-268 [13]): 47.1 µM | GI50 (RXF 393 [14]): 1.53 µM | GI50 (HOP-92): 1.62 µM | growth, % of control at 10 µM (UO-31 [15]): -75.2% | TGI (Malme-3M [16]): 5.79 µM | GI50 (Malme-3M [17]): 2.31 µM | CC50 (OVCAR-8): > 100 µM | CC50 (SNB-19): 8.97 µM | GI50 (SR): 0.394 µM | GI50 (SW-620): 0.684 µM | GI50 (OVCAR-3 [18]): 0.604 µM | CC50 (NCI/ADR-RES [19]): > 100 µM | CC50 (MDA-MB-435 [20]): 9.37 µM | TGI (SF-295): 2.7 µM | CC50 (TK-10 [21]): 7.46 µM | CC50 (OVCAR-3 [22]): 4.96 µM | TGI (UACC-257): 9.12 µM | CC50 (T47D): > 100 µM | CC50 (UO-31 [23]): 5.78 µM | GI50 (OVCAR-4 [24]): 5.13 µM | CC50 (SN12C): 24.6 µM | selectivity ratio [25]: 13 | Activity (Salmon testes DNA): 1.4% | CC50 (K562): > 100 µM | Activity (Jurkat [26]): Active

O=C1CC(N2C(=O)/C(=C/C(Cl)=C/c3ccc([N+](=O)[O-])cc3)SC2=S)C(=O)N1c1ccc(Cl)cc1 (stereo not drawn)
GI50 (HCC 2998 [1]): 1.59 µM | TGI (SF-268 [2]): > 100 µM | CC50 (NCI-H460): > 100 µM | Activity (Jurkat [3]): Active | GI50 at 48 h [4]: 28.9 µM | GI50 (HL-60): 1.45 µM | TGI (HOP-62 [5]): 5.5 µM | TGI (M14): 5.06 µM | GI50 (HOP-62 [6]): 1.73 µM | GI50 (NCI-H522): 1.73 µM | TGI (MDA-MB-231): 47.8 µM | GI50 (PC-3): 1.34 µM | CC50 (SK-MEL-2): > 100 µM | GI50 (NCI/ADR-RES [7]): 1.01 µM | TGI (OVCAR-4 [8]): > 100 µM | TGI (RXF 393 [9]): 2.72 µM | GI50 (MCF7): 1.38 µM | GI50 (HT-29): 0.632 µM | GI50 (ACHN): 1.34 µM | GI50 (MDA-MB-435 [10]): 1.65 µM | growth, % of control at 10 µM (HCC 2998 [11]): -22.9% | GI50 (TK-10 [12]): 2.79 µM | CC50 (COLO 205): > 100 µM | TGI (IGROV-1): 3.26 µM | CC50 (SF-268 [13]): > 100 µM | GI50 (RXF 393 [14]): 1.26 µM | GI50 (HOP-92): 2.58 µM | growth, % of control at 10 µM (UO-31 [15]): -42.9% | TGI (Malme-3M [16]): 11.6 µM | GI50 (Malme-3M [17]): 3.09 µM | CC50 (OVCAR-8): > 100 µM | CC50 (SNB-19): 7.54 µM | GI50 (SR): 0.544 µM | GI50 (SW-620): 0.508 µM | GI50 (OVCAR-3 [18]): 0.721 µM | CC50 (NCI/ADR-RES [19]): > 100 µM | CC50 (MDA-MB-435 [20]): 6.98 µM | TGI (SF-295): 3.24 µM | CC50 (TK-10 [21]): > 100 µM | CC50 (OVCAR-3 [22]): 8.89 µM | TGI (UACC-257): 66.5 µM | CC50 (T47D): > 100 µM | CC50 (UO-31 [23]): > 100 µM | GI50 (OVCAR-4 [24]): 5.55 µM | CC50 (SN12C): > 100 µM | selectivity ratio [25]: 10.7 | Activity (Salmon testes DNA): 4.3% | CC50 (K562): 54.9 µM | Activity (Jurkat [26]): Active
